According to the NIST ThermoML archive (doi:10.1021/je401015e):
Numbers after ± are expanded uncertainties.

Settings: Liquid; for mass density: Buoyancy - hydrostatic balance with magnetic suspension - one sinker

C=CCCCCC [1-heptene]
Settings | mass density [kg/m3] | viscosity [mPa·s]
298.15 K, 98 kPa | 694.51 ± 11 | 0.362 ± 0.012
298.15 K, 24510 kPa | 718.23 ± 11 | 0.451 ± 0.015
298.15 K, 49030 kPa | 734.7 ± 12 | 0.544 ± 0.018
298.15 K, 98060 kPa | 765.58 ± 12 | 0.739 ± 0.024
298.15 K, 147100 kPa | 783.57 ± 12 | 0.942 ± 0.031
298.15 K, 196130 kPa | 800.85 ± 13 | 1.226 ± 0.04
298.15 K, 245160 kPa | 816.79 ± 13 | 1.499 ± 0.049
303.15 K, 98 kPa | 689.57 ± 11 | 0.346 ± 0.012
303.15 K, 24510 kPa | 715 ± 11 | 0.431 ± 0.014
303.15 K, 49030 kPa | 733.1 ± 12 | 0.52 ± 0.017
303.15 K, 98060 kPa | 761.82 ± 12 | 0.706 ± 0.023
303.15 K, 147100 kPa | 780.46 ± 12 | 0.903 ± 0.03
303.15 K, 196130 kPa | 797.46 ± 13 | 1.162 ± 0.038
303.15 K, 245160 kPa | 815.3 ± 13 | 1.429 ± 0.047
312.83 K, 98 kPa | 680.92 ± 11 | 0.314 ± 0.011
322.39 K, 98 kPa | 672.17 ± 11 | 0.288 ± 0.01
327.47 K, 24510 kPa | 697.97 ± 11 | 0.351 ± 0.012
327.48 K, 98060 kPa | 746.71 ± 12 | 0.575 ± 0.019
327.49 K, 98 kPa | 668.07 ± 11 | 0.278 ± 0.009
327.49 K, 49030 kPa | 718.4 ± 11 | 0.429 ± 0.014
327.63 K, 147100 kPa | 767.87 ± 12 | 0.741 ± 0.024
327.63 K, 196130 kPa | 786.42 ± 13 | 0.925 ± 0.03
327.67 K, 245160 kPa | 805.58 ± 13 | 1.136 ± 0.037
340.21 K, 98 kPa | 655.95 ± 10 | 0.251 ± 0.008
354.73 K, 98 kPa | 643.5 ± 10 | 0.224 ± 0.008
359.63 K, 245160 kPa | 791.61 ± 13 | 0.883 ± 0.029
359.74 K, 147100 kPa | 750.76 ± 12 | 0.587 ± 0.019
359.75 K, 196130 kPa | 773.85 ± 12 | 0.726 ± 0.024
359.87 K, 98060 kPa | 730.37 ± 12 | 0.457 ± 0.015
359.96 K, 49030 kPa | 699.31 ± 11 | 0.34 ± 0.011
360.03 K, 98 kPa | 638.93 ± 10 | 0.215 ± 0.007
360.06 K, 24510 kPa | 672.86 ± 11 | 0.278 ± 0.009
392.4 K, 245160 kPa | 776.73 ± 12 | 0.709 ± 0.023
392.46 K, 196130 kPa | 758.9 ± 12 | 0.591 ± 0.02
392.61 K, 147100 kPa | 734.09 ± 12 | 0.48 ± 0.016
392.68 K, 49030 kPa | 676.29 ± 11 | 0.277 ± 0.009
392.74 K, 98060 kPa | 714.89 ± 11 | 0.377 ± 0.013
392.79 K, 24510 kPa | 646.48 ± 10 | 0.226 ± 0.008
423.82 K, 196130 kPa | 745.35 ± 12 | 0.489 ± 0.016
424.04 K, 147100 kPa | 717.45 ± 11 | 0.4 ± 0.013
424.07 K, 245160 kPa | 760.78 ± 12 | 0.574 ± 0.019
424.11 K, 24510 kPa | 619.97 ± 9.9 | 0.182 ± 0.006
424.17 K, 49030 kPa | 653.79 ± 10 | 0.226 ± 0.008
424.17 K, 98060 kPa | 697.03 ± 11 | 0.311 ± 0.01
452.22 K, 196130 kPa | 733.49 ± 12 | 0.434 ± 0.014
452.25 K, 98060 kPa | 676.86 ± 11 | 0.28 ± 0.009
452.27 K, 245160 kPa | 750.38 ± 12 | 0.503 ± 0.017
452.28 K, 147100 kPa | 702.95 ± 11 | 0.355 ± 0.012
452.34 K, 49030 kPa | 628.89 ± 10 | 0.198 ± 0.007
452.35 K, 24510 kPa | 595.84 ± 9.5 | 0.16 ± 0.006
473.28 K, 196130 kPa | 723.12 ± 12 | 0.407 ± 0.014
473.33 K, 147100 kPa | 692.3 ± 11 | 0.333 ± 0.011
473.35 K, 245160 kPa | 737.15 ± 12 | 0.47 ± 0.016
473.47 K, 98060 kPa | 665.45 ± 11 | 0.262 ± 0.009
473.56 K, 49030 kPa | 612.5 ± 9.8 | 0.183 ± 0.006
473.7 K, 24510 kPa | 578.48 ± 9.2 | 0.148 ± 0.005

C=CCCCC [hex-1-ene]
Settings | mass density [kg/m3] | viscosity [mPa·s]
298.15 K, 98 kPa | 669.71 ± 11 | 0.271 ± 0.009
298.15 K, 24510 kPa | 696.93 ± 11 | 0.337 ± 0.011
298.15 K, 49030 kPa | 714.95 ± 11 | 0.415 ± 0.014
298.15 K, 98060 kPa | 744.22 ± 12 | 0.55 ± 0.018
298.15 K, 147100 kPa | 763.36 ± 12 | 0.705 ± 0.023
298.15 K, 196130 kPa | 778.91 ± 12 | 0.876 ± 0.029
298.15 K, 245160 kPa | 793.17 ± 13 | 1.093 ± 0.036
303.15 K, 98 kPa | 664.87 ± 11 | 0.256 ± 0.009
303.15 K, 24510 kPa | 690.93 ± 11 | 0.321 ± 0.011
303.15 K, 49030 kPa | 711.55 ± 11 | 0.395 ± 0.013
303.15 K, 98060 kPa | 741.4 ± 12 | 0.525 ± 0.017
303.15 K, 147100 kPa | 761.37 ± 12 | 0.67 ± 0.022
303.15 K, 196130 kPa | 776.19 ± 12 | 0.84 ± 0.028
303.15 K, 245160 kPa | 791.19 ± 13 | 1.034 ± 0.034
312.92 K, 98 kPa | 655.77 ± 10 | 0.232 ± 0.008
325.17 K, 98 kPa | 644.12 ± 10 | 0.21 ± 0.007
325.99 K, 98060 kPa | 729.28 ± 12 | 0.442 ± 0.015
326 K, 24510 kPa | 675.1 ± 11 | 0.274 ± 0.009
326.02 K, 49030 kPa | 694.93 ± 11 | 0.328 ± 0.011
326.05 K, 147100 kPa | 750.05 ± 12 | 0.561 ± 0.019
326.12 K, 196130 kPa | 767.98 ± 12 | 0.694 ± 0.023
326.15 K, 245160 kPa | 783.2 ± 12 | 0.836 ± 0.028
364.25 K, 245160 kPa | 767.68 ± 12 | 0.628 ± 0.021
364.63 K, 196130 kPa | 751.74 ± 12 | 0.54 ± 0.018
364.69 K, 49030 kPa | 670.17 ± 11 | 0.254 ± 0.009
364.73 K, 24510 kPa | 645.55 ± 10 | 0.214 ± 0.007
364.75 K, 98060 kPa | 706.69 ± 11 | 0.346 ± 0.012
364.83 K, 147100 kPa | 731.74 ± 12 | 0.437 ± 0.015
398.25 K, 147100 kPa | 715.97 ± 11 | 0.363 ± 0.012
398.35 K, 245160 kPa | 753.74 ± 12 | 0.516 ± 0.017
398.37 K, 196130 kPa | 736.05 ± 12 | 0.444 ± 0.015
398.43 K, 24510 kPa | 618.11 ± 9.8 | 0.17 ± 0.006
398.78 K, 98060 kPa | 687.13 ± 11 | 0.287 ± 0.01
398.87 K, 49030 kPa | 645.8 ± 10 | 0.211 ± 0.007
422.37 K, 245160 kPa | 743.17 ± 12 | 0.456 ± 0.015
422.71 K, 196130 kPa | 726.21 ± 12 | 0.389 ± 0.013
422.74 K, 147100 kPa | 703.54 ± 11 | 0.319 ± 0.011
422.9 K, 98060 kPa | 672.81 ± 11 | 0.252 ± 0.009
423.1 K, 49030 kPa | 630.04 ± 10 | 0.184 ± 0.006
423.18 K, 24510 kPa | 598.39 ± 9.5 | 0.146 ± 0.005
452.77 K, 24510 kPa | 575.45 ± 9.2 | 0.124 ± 0.004
453.14 K, 49030 kPa | 608.12 ± 9.7 | 0.16 ± 0.006
453.14 K, 196130 kPa | 712.63 ± 11 | 0.338 ± 0.011
453.19 K, 98060 kPa | 656.91 ± 10 | 0.218 ± 0.007
453.28 K, 147100 kPa | 687.84 ± 11 | 0.277 ± 0.009
453.52 K, 245160 kPa | 732.58 ± 12 | 0.397 ± 0.013
471.55 K, 196130 kPa | 704.21 ± 11 | 0.315 ± 0.011
471.64 K, 245160 kPa | 725.42 ± 12 | 0.371 ± 0.012
471.73 K, 49030 kPa | 598.79 ± 9.5 | 0.15 ± 0.005
471.78 K, 98060 kPa | 646.27 ± 10 | 0.204 ± 0.007
471.92 K, 24510 kPa | 560.56 ± 8.9 | 0.115 ± 0.004
472.02 K, 147100 kPa | 680.82 ± 11 | 0.26 ± 0.009
